# Test results from patent US8790718B2, “Method of disinfection or infection control against norovirus” (Hiroshima University, priority 2007, dated 2014).
# Test system: norovirus
# Experiment: Anti-norovirus characteristics test (viral genome RNA by real-time PCR)
# Details: comparative test results of Example 1
# Protocol: A frozen stock solution of a norovirus isolated from stools of a patient and cryopreserved at −80° C. was thawed on ice. A hundred microliters of the norovirus stock solution was diluted ten times with phosphate-buffered saline (PBS) and was spun in a refrigerated centrifuge at 10,000 rpm for 20 minutes to remove a precipitate. The resulting “norovirus test solution” (950 μL solution) was used in the following examples.
# The “real-time PCR” in the following examples was performed in accordance with a document “Detection Method for Norovirus” attached to a notice (Notice No. 1105001 from the Inspection and Safety Division, dated Nov. 5, 2003. See http://www.mhlw.go.jp/topics/syokuchu/kanren/kanshi/031105-1.html) issued by the Director of the Inspection and Safety Division, Department of Food Safety, Pharmaceutical and Food Safety Bureau, Ministry of Health, Labour and Welfare.
# The real-time PCR counts the number of viral genomes in the states of […] in FIG. 1. In the following examples, only elimination of (the RNA of) a norovirus illustrated in (c) is rated as “efficacious”, and the survival of (the RNA of) a norovirus illustrated in (b) is rated as “inefficacious” even if the infectivity and proliferative capacity of the norovirus are lost. Nevertheless, an anti-norovirus composition according to the present invention is rated as more efficacious than conventional compositions. Taking the state of a norovirus illustrated in (b) into account, an anti-norovirus composition according to the present invention should therefore have still higher practical efficacy.
# Twenty-five microliters of the norovirus test solution and 25 μL of each of the compositions (A1 to A5 or B1 to B7) were sufficiently mixed. […] After the diluted solution was subjected to treatments, such as RNA extraction and cDNA synthesis, viral genome RNAs remaining in the diluted solution was counted by real-time PCR. […] These measured values for the sample solutions and the corresponding controls were compared to determine the inhibition rates of the compositions for the norovirus.
row,Compound,efficacy for a norovirus (in words)
1,O=C(O)c1cc(O)c(O)c(O)c1 [gallic acid],no efficacy
2,"CCCOC(=O)c1cc(O)c(O)c(O)c1 [propyl gallate, gallic acid propyl ester]",no efficacy
3,catechin,no efficacy
